In patent US6852706B1, “Methods and compositions for healing heart wounds” (The Wistar Institute, priority 2000, dated 2005):

What was measured:
C57B1/6 mice = system: C57B1/6 mice
Method: Cardiac injury. Myocardial injury is cryogenically initiated, employing a technique adapted from Taylor et al. (1998) (ref 28). Adult MRL and C57B1/6 mice (6-8 weeks of age) were anaesthetized using an intraperitoneal injection of ketamine (100 mg/kg) and xylazine (15 mg/kg). A 2 mm diameter blunt probe cooled to the temperature of liquid Nitrogen is then introduced, trans-diaphragmatically, to the right ventricular surface of the heart.
Access to the diaphragm was accomplished by a 6-8 mm incision made through the skin on the ventral surface of the abdomen below the ribcage approximately 5 mm posterior to—and approximately 5 mm to the left of the ventral midline—the sternum. The underlying musculature was incised to an equivalent extent. The diaphragm was exposed using forceps to retract the medial lobe of the liver. The right ventricular surface of the heart was thus presented directly adjacent to, and clearly visible through, the diaphragm. Injury to the heart was achieved by holding the cryoprobe in contact with the diaphragmatic surface for 10 seconds and repeated using a second, identical cryoprobe. The abdominal musculature was then repositioned and closed using 6-0 […] suture. The 6-0 nylon suture was also used for skin closure.
Histology Frozen sections: Hearts were removed and frozen in isopentane cooled to −160° C. in liquid nitrogen. Eight micron-thick sections were cut for immunohistochemistry and histology. Fixed sections: Hearts were fixed in Prefer Fixative (Anatheh Ltd.). Paraffin-embedded sections cut to a thickness of 5 microns were used for both histology and immunohistochemistry.
We also treated nonhealer C57B1/6 mice with PTU, which is known to inhibit thyroid activity.

B6 mouse = details: 15 days after PTU treatment
MRL mice = assay: Cryo-injury of the heart in MRL (healer) mice given slow-release T3 pellets; assay type: in vivo, mouse; details: pellets containing 0.01 mg T3, slow release (21 days), 0.0005 mg/day, injured one day later
Method: The underlying musculature was incised to an equivalent extent.
To determine whether administering T3 to MRL mice inhibits healing of ear and heart wounds, we placed pellets containing 0.01 mg of T3 in a slow release formulation (21 days) in MRL mice. Via these pellets, the mice received 0.0005 mg/day of T3 . Mice were injured one day later.

[1] = wounded C57B1/6 mice pretreated with PTU

Row | Structure (SMILES) | Heart wound healing and epithelial growth at larger concentrations (C57B1/6 mice; C57B1/6 mice, PTU 2 or 3 mg/day) | Epithelial layer versus untreated C57B1/6 mice (C57B1/6 mice; [1]) | Growth of myocardium versus untreated C57B1/6 mice (C57B1/6 mice; [1]) | Ear hole size versus untreated B6 ear holes (B6 mouse) | Proliferation in ear hole wound (B6 mouse) | Healing of heart wound (MRL mice) | Heart wound scarring / fibrotic tissue (MRL mice; by day 15)
1 | CCCc1cc(=O)[nH]c(=S)[nH]1 [PTU, propylthiouracil] | better healing and greater epithelial growth | more intact epithelial layer | significantly greater growth of myocardium | smaller | impressive degree of epithelial proliferation, as well as muscle and adipocyte proliferation |  | 
2 | N[C@@H](Cc1cc(I)c(Oc2ccc(O)c(I)c2)c(I)c1)C(=O)O [T3] |  |  |  |  |  | never healed | severely scarred, with a large degree of fibrotic tissue
